According to US20090042912A1, “DIPHENYLIMIDAZOLYL COMPOUNDS AS INHIBITORS OF beta-SECRETASE” (Wyeth, priority 2004, published 2009):
Like-named read-outs stand apart in the source and are kept apart here.

Columns and labels:
human BACE2 = target: T1, human BACE2 (Homo sapiens, UniProt Q9Y5Z0); assay: Fluorescent kinetic assay for human recombinant BACE 2 (WABC-6 peptide substrate); format: biochemical; conditions: for inhibition at 25 µM: read-out: BACE2. % inhibition; for IC50: 1.5 nM enzyme, 25 μM substrate, pH 4.5, room temperature
T1 sequence (Q9Y5Z0 63-518): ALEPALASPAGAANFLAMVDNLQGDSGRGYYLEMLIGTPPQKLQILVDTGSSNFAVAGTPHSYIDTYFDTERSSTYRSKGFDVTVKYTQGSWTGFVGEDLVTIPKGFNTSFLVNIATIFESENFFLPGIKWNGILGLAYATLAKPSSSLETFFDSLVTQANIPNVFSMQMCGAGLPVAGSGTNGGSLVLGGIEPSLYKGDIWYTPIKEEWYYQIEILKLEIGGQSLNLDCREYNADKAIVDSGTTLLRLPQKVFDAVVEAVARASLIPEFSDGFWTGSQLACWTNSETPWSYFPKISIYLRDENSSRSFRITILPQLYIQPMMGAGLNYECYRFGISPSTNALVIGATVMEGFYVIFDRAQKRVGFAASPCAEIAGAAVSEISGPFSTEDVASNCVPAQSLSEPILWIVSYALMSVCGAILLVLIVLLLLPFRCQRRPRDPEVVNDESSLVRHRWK
Description: Fluorescent Kinetic Assay for Human Recombinant BACE 2
This assay is used to provide kinetic and selectivity parameters for the analyses of the tested compounds.
Temperature: room temperature.
Dilution and Mixing Steps: Total Reaction Volume.: 100 μL • 1.
Readings at λex 320 nm, λem 420 nm are taken every 40-sec for 30 min at room temperature and to determine the linear slope for substrate cleavage rate (vi).

human BACE1 = human BACE1 (Homo sapiens, UniProt P56817); assay: Fluorescent kinetic assay, inhibition of BACE1 (WABC-6 peptide substrate); format: biochemical
Description: Evaluation of the Enzyme Activity of Test Compounds and the Inhibition of hBACE1, MuBACE1 and hBACE2 by Test Compounds
The concentration is determined by absorbance at 354 nm using an extinction coefficient ε of 18172 M^−1cm^−1, The substrate stock is stored in small aliquots at −80° C. [Substrate Stock]=ABS^354 nm*10^6/18172 ([…])
Dilution and mixing steps: total reaction volume: 100 μL • 1. 2× inhibitor dilutions in buffer A (66.7 mM Na-Acetate, pH 4.5, 0.0667% CHAPS) are prepared, • 2. 4× enzyme dilution in buffer A (66.7 mM Na-Acetate, pH 4.5, 0.0667% CHAPS) are prepared, • 3. 100 μM substrate dilution in 1× PBS is prepared, • 4. 50 μL 2× Inhibitor and 25 μL 100 μM substrate are added to each well of 96-well plate (from DYNEX Technologies, VWR #: 11311-046), the immediately 25 μL 4× enzyme are added to the inhibitor and substrate mixer, the fluorescence readings are initiated.
Readings at λex 320 nm and λem 420 nm are taken every 40-sec for 30 min at room temperature to determine the linear slope for substrate cleavage rate (vi).

[1] = 10 nM enzyme, 25 μM substrate, pH 4.5, room temperature, read-out: IC50 (μM) BACE1.

Sequence of human BACE1 (P56817 46-501): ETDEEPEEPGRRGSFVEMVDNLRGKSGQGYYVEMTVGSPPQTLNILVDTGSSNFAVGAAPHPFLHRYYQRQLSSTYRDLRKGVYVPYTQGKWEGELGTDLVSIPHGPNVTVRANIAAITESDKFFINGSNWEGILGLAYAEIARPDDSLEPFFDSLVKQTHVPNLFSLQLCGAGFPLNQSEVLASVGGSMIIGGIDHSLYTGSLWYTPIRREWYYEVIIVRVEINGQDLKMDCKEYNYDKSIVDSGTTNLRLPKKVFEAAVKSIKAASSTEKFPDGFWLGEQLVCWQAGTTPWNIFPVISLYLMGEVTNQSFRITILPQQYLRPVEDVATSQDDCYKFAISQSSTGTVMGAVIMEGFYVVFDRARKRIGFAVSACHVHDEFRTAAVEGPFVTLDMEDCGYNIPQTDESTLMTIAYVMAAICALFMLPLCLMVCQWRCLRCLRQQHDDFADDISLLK

| SMILES | inhibition at 25 µM (human BACE2; at 25 μM) [%] | IC50 (human BACE2) [µM] | IC50 (human BACE1; [1]) [µM] | melting point [°C] | other results |
| --- | --- | --- | --- | --- | --- |
| NC1=N[C@@](c2ccc(OC(F)(F)F)cc2)(c2cccc(-c3cncnc3)c2)C2=NCCCN12 (single isomer, unassigned) [Example 31B] | – | – | – | – | inhibition at 25 µM (human BACE2): 28% |
| NC1=NC(c2ccc(OC(F)(F)F)cc2)(c2cccc(-c3cncnc3)c2)c2nccn21 (stereo not shown) [Example 5] | 50 | – | 0.23 | – | – |
| NC1=NC(c2ccc(OC(F)(F)F)cc2)(c2ccc(F)c(-c3cncnc3)c2)C2=NCCCN12 (stereo not shown) [Example 13, 8-{[(4-Fluoro-3-pyrimidin-5-yl)phenyl]-8-[4-(trifluoromethoxy)phenyl]-2,3,4,8-tetrahydroimidazo[1,5-a]pyrimidin-6-yl}amine] | 25 | – | 0.15 | 105 to 115 | – |
| NC1=NC(c2ccc(OC(F)(F)F)cc2)(c2ccc(F)c(-c3cncc(F)c3)c2)C2=NCCCN12 (stereo not shown) [Example 14, {8-[4-Fluoro-3-(5-fluoropyrimidin-3-yl)phenyl]-8-[4-(trifluoromethoxy)phenyl]-2,3,4,8-tetrahydroimidazo[1,5-a]pyrimidin-6-yl}amine] | – | – | 0.14 | 94 to 105 | inhibition at 25 µM (human BACE2): 65% |
| NC1=NC(c2ccc(OC(F)(F)F)cc2)(c2ccc(F)c(-c3cccnc3F)c2)C2=NCCCN12 (stereo not shown) [Example 15, 8-[4-fluoro-3-(2-fluoropyridin-3-yl)phenyl]-8-[4-(trifluoromethoxy)phenyl]-2,3,4,8-tetrahydroimidazo[1,5-a]pyrimidin-6-amine] | 44 | – | 0.1 | 99 to 122 | – |
| NC1=NC(c2ccc(OC(F)(F)F)cc2)(c2cccc(-c3cncnc3)c2)C2=NCCCN12 (stereo not shown) [Example 16, 8-(3-pyrimidin-5-ylphenyl)-8-[4-(trifluoromethoxy)phenyl]-2,3,4,8-tetrahydroimidazo[1,5-a]pyrimidin-6-amine] | – | – | – | 214 to 218 | inhibition at 25 µM (human BACE2): 49% |
| NC1=NC(c2ccc(OC(F)(F)F)cc2)(c2cccc(-c3cccnc3F)c2)C2=NCCCN12 (stereo not shown) [Example 17, 8-[3-(2-fluoropyridin-3-yl)phenyl]-8-[4-(trifluoromethoxy)phenyl]-2,3,4,8-tetrahydroimidazo[1,5-a]pyrimidin-6-amine] | – | 11.4 | – | 105 to 115 | – |
| NC1=NC(c2ccc(OC(F)(F)F)cc2)(c2cccc(-c3cncc(F)c3)c2)C2=NCCCN12 (stereo not shown) [Example 19, 8-[3-(5-fluoropyridin-3-yl)phenyl]-8-[4-(trifluoromethoxy)phenyl]-2,3,4,8-tetrahydroimidazo[1,5-a]pyrimidin-6-amine] | – | 3.22 | 0.08 | 112 to 118 | – |
| COc1ccc(C2(c3cccc(-c4cncnc4)c3)N=C(N)N3CCCN=C32)cc1 (stereo not shown) [Example 22, 8-(4-methoxyphenyl)-8-(3-pyrimidin-5-ylphenyl)-2,3,4,8-tetrahydroimidazo[1,5-a]pyrimidin-6-amine] | 60 | – | – | 136 to 140 | – |
| NC1=NC(c2ccc(OC(F)(F)F)cc2)(c2cccc(-c3cnccc3F)c2)C2=NCCCN12 (stereo not shown) [Example 27, 8-[3-(4-fluoropyridin-3-yl)phenyl]-8-[4-(trifluoromethoxy)phenyl]-2,3,4,8-tetrahydroimidazo[1,5-a]pyrimidin-6-amine] | – | – | – | 83 to 97 | – |
| N#CNC1=NC(c2ccc(OC(F)(F)F)cc2)(c2cccc(-c3cncnc3)c2)C2=NCCCN12 (stereo not shown) [Example 29, 8-(3-Pyrimidin-5-yl-phenyl)-8-(4-trifluoromethoxy-phenyl)-2,3,4,8-tetrahydro-imidazo[1,5-a]pyrimidin-6-yl-cyanamide] | – | – | – | 227 to 231 | – |
| NC1=NC(c2ccc(OC(F)(F)F)cc2)(c2cccc(-c3ccc[n+]([O-])c3F)c2)C2=NCCCN12 (stereo not shown) [Example 34, 8-[3-(2-Fluoro 1-oxy-pyridin-3-yl)-phenyl]-8-(4-trifluoromethoxy-phenyl)-2,3,4,8-tetrahydro-imidazo[1,5-a]pyrimidin-6-ylamine] | 25 | – | – | – | – |
| NC1=NC(c2ccc(OC(F)(F)F)cc2)(c2cccc(-c3cccnc3F)c2)C2=NCCCCN12 (stereo not shown) [Example 36, 9-[3-(2-Fluoro-pyridin-3-yl)-phenyl]-9-(4-trifluoromethoxy-phenyl)-2,4,5,9-tetrahydro-3H-imidazo[1,5-a][1,3]diazepin-7-ylamine] | – | 7.32 | – | – | IC50 (human BACE1): 0.071 µM |
| NC1=NC(c2ccc(OC(F)(F)F)cc2)(c2cccc(-c3cccnc3F)c2)C2=NCCCCCN12 (stereo not shown) [Example 37, 1-[3-(2-Fluoro-pyridin-3-yl)-phenyl]-1-(4-trifluoromethoxy-phenyl)-1,4,5,6,7,8-hexahydro-2,3a,9-triaza-cyclopentacycloocten-3-ylamine] | – | 10.8 | – | – | – |
| NC1=NC(c2cccc(-c3cccnc3F)c2)(c2ccc3c(c2)OCO3)C2=NCCCN12 (stereo not shown) [Example 40, 8-Benzo[1,3]dioxol-5-yl-8-[3-(2-fluoro-pyridin-3-yl)-phenyl]-2,3,4,8-tetrahydro-imidazo[1,5-a]pyrimidin-6-ylamine] | – | – | – | 106 to 119 | IC50 (human BACE1; read-out: IC50 (μM) BACE1.): 0.16 µM |
| CC1(C)CN2C(N)=NC(c3ccc(OC(F)(F)F)cc3)(c3cccc(-c4cccnc4F)c3)C2=N1 (stereo not shown) [Example 42, 7-[3-(2-Fluoropyridin-3-yl)phenyl]-2,2-dimethyl-7-(4-trifluoromethoxyphenyl)-2,7-dihydro-3H-imidazo[1,5-a]imidazol-5-ylamine] | 52 | – | 0.15 | – | – |

Continued, in another order:

| inhibition at 25 µM (human BACE2; at 25 μM) [%] | IC50 (human BACE2) [µM] | IC50 (human BACE1; [1]) [µM] | melting point [°C] | SMILES | other results |
| --- | --- | --- | --- | --- | --- |
| 35 | – | – | – | NC1=N[C@](c2ccc(OC(F)(F)F)cc2)(c2cccc(-c3cccnc3F)c2)C2=NCCCN12 (single isomer, unassigned) [Example 30A] | – |
| – | 3.79 | – | – | NC1=N[C@@](c2ccc(OC(F)(F)F)cc2)(c2cccc(-c3cccnc3F)c2)C2=NCCCN12 (single isomer, unassigned) [Example 30B] | – |
| – | 10.4 | – | – | NC1=N[C@](c2ccc(OC(F)(F)F)cc2)(c2cccc(-c3cncnc3)c2)C2=NCCCN12 (single isomer, unassigned) [Example 31A] | – |
| – | 0.272 | 0.029 | – | NC1=N[C@@](c2ccc(OC(F)(F)F)cc2)(c2cccc(-c3cncc(Cl)c3)c2)C2=NCCCN12 [Example 32A, (8S)-8-[3-(5-Chloropyridin-3-yl)phenyl]-8-[4-(trifluoromethoxy)-phenyl]-2,3,4,8-tetrahydroimidazo[1,5-a]pyrimidin-6-amine] | – |
| 34 | – | – | – | NC1=N[C@](c2ccc(OC(F)(F)F)cc2)(c2cccc(-c3cncc(Cl)c3)c2)C2=NCCCN12 [Example 32B, (8R)-8-[3-(5-Chloropyridin-3-yl)phenyl]-8-[4-(trifluoromethoxy)-phenyl]-2,3,4,8-tetrahydroimidazo[1,5-a]pyrimidin-6-amine] | inhibition at 5 µM (human BACE1): 19% |
| – | 4 | 0.05 | – | NC1=N[C@@](c2ccc(OC(F)(F)F)cc2)(c2cccc(-c3cnccc3F)c2)C2=NCCCN12 [Example 33A, (8S)-8-[3-(4-fluoropyridin-3-yl)phenyl]-8-[4-(trifluoromethoxy)-phenyl]-2,3,4,8-tetrahydroimidazo[1,5-a]pyrimidin-6-amine] | – |
| 25 | – | – | – | NC1=N[C@](c2ccc(OC(F)(F)F)cc2)(c2cccc(-c3cnccc3F)c2)C2=NCCCN12 [Example 33B, (8R)-8-[3-(4-fluoropyridin-3-yl)phenyl]-8-[4-(trifluoromethoxy)phenyl]-2,3,4,8-tetrahydroimidazo[1,5-a]pyrimidin-6-amine] | inhibition at 5 µM (human BACE1): 43% |
| – | 0.7 | 0.01 | – | NC1=N[C@](c2ccc(OC(F)F)cc2)(c2cccc(-c3cccnc3F)c2)C2=NCCCN12 [Example 45A, (8R)-8-(4-Difluoromethoxy-phenyl)-8-[3-(2-fluoro-pyridin-3-yl)-phenyl]-2,3,4,8-tetrahydro-imidazo[1,5-a]pyrimidin-6-ylamine] | – |
| 60 | – | – | – | NC1=N[C@@](c2ccc(OC(F)F)cc2)(c2cccc(-c3cccnc3F)c2)C2=NCCCN12 [Example 45B, (8S)-8-(4-Difluoromethoxy-phenyl)-8-[3-(2-fluoro-pyridin-3-yl)-phenyl]-2,3,4,8-tetrahydro-imidazo[1,5-a]pyrimidin-6-ylamine] | inhibition at […] (human BACE1; at 2.5 uM): 49% |
